Source: patent publication US20190225650A1, “PEPTIDOMIMETIC MACROCYCLES AND USE THEREOF IN REGULATING HIF1ALPHA” (AILERON THERAPEUTICS, INC., priority 2013, published 2019)
Bridge positions count the residues as written; N and C are the ends. Square brackets hold non-standard residues; d marks the D form. Peptide text beside a SMILES is read from it. S5 = C=CCCC[C@](C)(N)C(=O)O; Nle = CCCC[C@H](N)C(=O)O

Test system: HRE-bla ME-180 cells
Experiment: Reporter gene assay (HRE-bla ME-180 HIF reporter, GeneBLAzer)
Format: cell-based, human
Conditions: for EC50: 24 hour normoxia
Method in brief: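 A FRET β-lactamase readout of HIF transcription was used. After compound treatment in 0.3% DMSO/media under normoxic conditions, 20 μl of 6× LiveBLAzer-FRET B/G (CCF4-AM) substrate was added. Plates sat 3 hr at room temperature in the dark and were read at 409 Ex/460Em and 409Ex/530Em on a Synergy 2. Inhibition was compared against DMSO vehicle controls, with chetomin as positive control.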

SMILES: CCCC[C@H](NC(=O)[C@H](CC(C)C)NC(=O)[C@@H](NC(=O)[C@H](CCC(=O)O)NC(=O)[C@H](CCC(=O)O)NC(=O)[C@H](CC(=O)O)NC(=O)[C@@H](NC(=O)[C@H](Cc1ccccc1)NC(C)=O)[C@@H](C)CC)C(C)C)C(=O)N[C@@]1(C)CCCC=CCCC[C@@](C)(C(=O)N[C@@H](CCCC)C(=O)N[C@@H](C)C(=O)N[C@@H](CC(C)C)C(=O)N[C@@H](CC(=O)O)C(=O)N[C@@H](C)C(=O)N[C@H](C(N)=O)[C@@H](C)CC)NC(=O)[C@H]([C@@H](C)CC)NC(=O)[C@H](C(C)C)NC(=O)[C@H](CC(C)C)NC1=O [SP-24] (Ac-FIDEEVL[Nle][S5]LVI[S5][Nle]ALDAI-NH2; staple 9-13)
- 18 h Avg % max inhibition at top conc (HIF Rptr-24 hrs normoxia) (μM): ++++ (≥50: ++++)
- EC50: 5 to 15 µM

SMILES: CCCC[C@H](NC(=O)[C@H](CC(C)C)NC(=O)[C@@H](NC(=O)[C@H](C)NC(=O)[C@H](CCC(=O)O)NC(=O)[C@H](CC(=O)O)NC(=O)[C@@H](NC(=O)[C@H](Cc1ccccc1)NC(C)=O)[C@@H](C)CC)C(C)C)C(=O)N[C@@]1(C)CCCC=CCCC[C@@](C)(C(=O)N[C@@H](CCCC)C(=O)N[C@@H](C)C(=O)N[C@@H](CC(C)C)C(=O)N[C@@H](CC(=O)O)C(=O)N[C@@H](CCCNC(=N)N)C(=O)N[C@H](C(N)=O)[C@@H](C)CC)NC(=O)[C@H]([C@@H](C)CC)NC(=O)[C@H](C(C)C)NC(=O)[C@H](CC(C)C)NC1=O [SP-13] (Ac-FIDEAVL[Nle][S5]LVI[S5][Nle]ALDRI-NH2; staple 9-13)
- 18 h Avg % max inhibition at top conc (HIF Rptr-24 hrs normoxia) (μM): ++++ (≥50: ++++)
- EC50: 5 to 15 µM

SMILES: CCCC[C@H](NC(=O)[C@]1(C)CCCC=CCCC[C@](C)(NC(=O)[C@H](C)NC(=O)[C@H](CC(C)C)NC(=O)[C@@H](NC(=O)[C@H](CCC(=O)O)NC(=O)[C@H](CCC(=O)O)NC(=O)[C@H](CC(=O)O)NC(=O)[C@@H](NC(=O)[C@H](Cc2ccccc2)NC(C)=O)[C@@H](C)CC)C(C)C)C(=O)N[C@@H](CC(C)C)C(=O)N[C@@H](C(C)C)C(=O)N[C@@H]([C@@H](C)CC)C(=O)N1)C(=O)N[C@@H](C)C(=O)N[C@@H](CC(C)C)C(=O)N[C@@H](CC(=O)O)C(=O)N[C@@H](CCCNC(=N)N)C(=O)N[C@H](C(N)=O)[C@@H](C)CC [SP-16] (Ac-FIDEEVLA[S5]LVI[S5][Nle]ALDRI-NH2; staple 9-13)
- 18 h Avg % max inhibition at top conc (HIF Rptr-24 hrs normoxia) (μM): ++++ (≥50: ++++)
- EC50: ≤ 5 µM

SMILES: CCCC[C@H](NC(=O)[C@H](CC(C)C)NC(=O)[C@@H](NC(=O)[C@H](CCC(=O)O)NC(=O)[C@H](CCC(=O)O)NC(=O)[C@H](CC(=O)O)NC(=O)[C@@H](NC(=O)[C@H](Cc1ccccc1)NC(C)=O)[C@@H](C)CC)C(C)C)C(=O)N[C@@]1(C)CCCC=CCCC[C@@](C)(C(=O)N[C@@H](CCCC)C(=O)N[C@@H](C)C(=O)N[C@@H](CC(C)C)C(=O)N[C@@H](CO)C(=O)N[C@@H](CCCNC(=N)N)C(=O)N[C@H](C(N)=O)[C@@H](C)CC)NC(=O)[C@H]([C@@H](C)CC)NC(=O)[C@H](C(C)C)NC(=O)[C@H](CC(C)C)NC1=O [SP-57] (Ac-FIDEEVL[Nle][S5]LVI[S5][Nle]ALSRI-NH2; staple 9-13)
- 18 h Avg % max inhibition at top conc (HIF Rptr-24 hrs normoxia) (μM): ++++ (≥50: ++++)
- EC50: 5 to 15 µM

SMILES: CCCC[C@H](NC(=O)[C@H](CO)NC(=O)[C@@H](NC(=O)[C@H](CCC(=O)O)NC(=O)[C@H](CCC(=O)O)NC(=O)[C@H](CC(=O)O)NC(=O)[C@@H](NC(=O)[C@H](Cc1ccccc1)NC(C)=O)[C@@H](C)CC)C(C)C)C(=O)N[C@@]1(C)CCCC=CCCC[C@@](C)(C(=O)N[C@@H](CCCC)C(=O)N[C@@H](C)C(=O)N[C@@H](CC(C)C)C(=O)N[C@@H](CC(=O)O)C(=O)N[C@@H](CCCNC(=N)N)C(=O)N[C@H](C(N)=O)[C@@H](C)CC)NC(=O)[C@H]([C@@H](C)CC)NC(=O)[C@H](C(C)C)NC(=O)[C@H](CC(C)C)NC1=O [SP-49] (Ac-FIDEEVS[Nle][S5]LVI[S5][Nle]ALDRI-NH2; staple 9-13)
- 18 h Avg % max inhibition at top conc (HIF Rptr-24 hrs normoxia) (μM): ++++ (≥50: ++++)
- EC50: 5 to 15 µM

SMILES: CCCC[C@H](NC(=O)[C@H](CC(C)C)NC(=O)[C@@H](NC(=O)[C@H](CCC(=O)O)NC(=O)[C@H](CCC(=O)O)NC(=O)[C@H](CC(=O)O)NC(=O)[C@@H](NC(=O)[C@H](C)NC(C)=O)[C@@H](C)CC)C(C)C)C(=O)N[C@@]1(C)CCCC=CCCC[C@@](C)(C(=O)N[C@@H](CCCC)C(=O)N[C@@H](C)C(=O)N[C@@H](CC(C)C)C(=O)N[C@@H](CC(=O)O)C(=O)N[C@@H](CCCNC(=N)N)C(=O)N[C@H](C(N)=O)[C@@H](C)CC)NC(=O)[C@H]([C@@H](C)CC)NC(=O)[C@H](C(C)C)NC(=O)[C@H](CC(C)C)NC1=O [SP-9] (Ac-AIDEEVL[Nle][S5]LVI[S5][Nle]ALDRI-NH2; staple 9-13)
- 18 h Avg % max inhibition at top conc (HIF Rptr-24 hrs normoxia) (μM): +++ (≤25 but <50: +++)
- EC50: 15 to 30 µM

SMILES: CC[C@H](C)[C@H](NC(=O)[C@H](CCCNC(=N)N)NC(=O)[C@H](CC(=O)O)NC(=O)[C@H](CC(C)C)NC(=O)[C@H](C)NC(=O)[C@H](C)NC(=O)[C@]1(C)CCCC=CCCC[C@](C)(NC(=O)[C@H](C)NC(=O)[C@H](CC(C)C)NC(=O)[C@@H](NC(=O)[C@H](CCC(N)=O)NC(=O)[C@H](CCC(=O)O)NC(=O)[C@H](CC(=O)O)NC(=O)[C@@H](NC(=O)[C@H](Cc2ccccc2)NC(C)=O)[C@@H](C)CC)C(C)C)C(=O)N[C@@H](CC(C)C)C(=O)N[C@@H](C(C)C)C(=O)N[C@@H]([C@@H](C)CC)C(=O)N1)C(N)=O [SP-70] (Ac-FIDEQVLA[S5]LVI[S5]AALDRI-NH2; staple 9-13)
- 18 h Avg % max inhibition at top conc (HIF Rptr-24 hrs normoxia) (μM): +++ (≤25 but <50: +++)
- EC50: 5 to 15 µM

SMILES: CCCC[C@H](NC(=O)[C@H](CC(C)C)NC(=O)[C@@H](NC(=O)[C@H](CCC(=O)O)NC(=O)[C@H](CCC(=O)O)NC(=O)[C@H](CC(=O)O)NC(=O)[C@@H](NC(=O)[C@H](Cc1ccccc1)NC(C)=O)[C@@H](C)CC)C(C)C)C(=O)N[C@@]1(C)CCCC=CCCC[C@@](C)(C(=O)N[C@@H](C)C(=O)N[C@@H](C)C(=O)N[C@@H](CC(C)C)C(=O)N[C@@H](CC(=O)O)C(=O)N[C@@H](CCCNC(=N)N)C(=O)N[C@H](C(N)=O)[C@@H](C)CC)NC(=O)[C@H]([C@@H](C)CC)NC(=O)[C@H](C(C)C)NC(=O)[C@H](CC(C)C)NC1=O [SP-20] (Ac-FIDEEVL[Nle][S5]LVI[S5]AALDRI-NH2; staple 9-13)
- 18 h Avg % max inhibition at top conc (HIF Rptr-24 hrs normoxia) (μM): ++++ (≥50: ++++)
- EC50: 5 to 15 µM

SMILES: CCCC[C@H](NC(=O)[C@H](CC(C)C)NC(=O)[C@@H](NC(=O)[C@H](CCC(=O)O)NC(=O)[C@H](CCC(=O)O)NC(=O)[C@H](CC(=O)O)NC(=O)[C@@H](NC(=O)[C@H](Cc1ccccc1)NC(C)=O)[C@@H](C)CC)C(C)C)C(=O)N[C@@]1(C)CCCC=CCCC[C@@](C)(C(=O)N[C@@H](CCCC)C(=O)N[C@@H](C)C(=O)N[C@@H](CC(C)C)C(=O)N[C@@H](CC(=O)O)C(=O)N[C@@H](CCCNC(=N)N)C(=O)N[C@@H](CO)C(N)=O)NC(=O)[C@H]([C@@H](C)CC)NC(=O)[C@H](C(C)C)NC(=O)[C@H](CC(C)C)NC1=O [SP-59] (Ac-FIDEEVL[Nle][S5]LVI[S5][Nle]ALDRS-NH2; staple 9-13)
- 18 h Avg % max inhibition at top conc (HIF Rptr-24 hrs normoxia) (μM): +++ (≤25 but <50: +++)
- EC50: 15 to 30 µM
